Assay results reported in patent US8501792B2, “Treating cancer with desthiazolyl ritonavir” (priority 2008, dated 2013).

Test system: Purified mammalian Hsp90
Assay: Hsp90 binding on CM-5 BIAcore chip (surface plasmon resonance)
Description: Inhibition of Hsp90 can be evaluated by surface plasmon resonance studies of a compound of formula I, using a CM-5 Biacore chip on which Hsp90 (Stressgen, Ann Arbor) has been immobilized. This method can also be used to evaluate the chaperoning activity of a compound of formula I by evaluation of luciferase refolding. See Examples 4 and 9.
Purified mammalian Hsp90 was attached to a CM-5 BIAcore chip through an NHS ester linkage. After attachment of the Hsp90 and blocking the chip with BSA, M1 drug or a 17-AAG control was circulated through a microfluidic circuit and change in refractive index was measured by quantification of the RU value for each drug concentration. In the case of the 17-AAG control the binding was saturable and based on the kon and koff measurements, the KD was estimated to be in the 1 microM range. […] This means that there are significant differences in the binding of M-1 and may indicate alteration of the Hsp90 structure.

binding to Hsp90, saturability (RU value versus drug concentration, FIG. 11): saturable
Kd (estimated from kon and koff measurements): ~1000 nM
Structure (SMILES): C=CCNC1=C2C[C@@H](C)C[C@H](OC)[C@H](O)[C@@H](C)/C=C(\C)[C@H](OC(N)=O)[C@@H](OC)/C=C\C=C(/C)C(=O)NC(=CC1=O)C2=O [17-AAG]
